Tests used:
[1] = test system: male Wistar rats; assay: Test 1: thickening of the small- and mid-sized renal artery wall in rats given L-NAME; type: in vivo, rat; settings: drinking water with L-NAME 1 g/L plus VPP 0.3 g/L or Enalapril 0.5 mg/L, ad libitum for eight weeks; compared with L-NAME alone; FIG. 1
Description: (§1) In order to evaluate the effect of the tripeptide Val Pro Pro (VPP) to suppress kidney glomerular disease and renal arteriosclerosis, a test on the frequency of occurrence of renal glomerular lesions and the degree of thickening of the small and middle renal artrey wall was carried out.
(§2) The test was carried out using three groups of male Wistar rats of seven weeks old (Japan SLC, Inc.), each of which group consist of 9 to 12 rats. […] The dose of Enalapril was determined such that its activity to inhibit ACE was equivalent to VPP's. […]
The thickening of the small-, and mid -sized artery wall existing in the renal cortex was also evaluated by a tissue pathological test in the same manner as the observation of the glomerular lesions. […] The thickness of the small- and mid-sized artery wall was scored from 0 to 3 as described below and a score for each individual rat was determined. The determined score for each individual rat was subjected to statistical analysis and a score for each group was determined. […]

[2] = test system: male Wistar rats; assay: Test 2: rat renal pathologic state (glomerular lesions, renal artery wall at the hilum and small- and mid-sized artery wall thickening) in rats given L-NAME; type: in vivo; settings: drinking water with L-NAME 1 g/L plus IPP 0.3 g/L or Enalapril 0.5 mg/L, eight weeks; for With pathologic state / Without pathologic state: pathologic state = score not less than 1 in all three items
Description: The tripeptide Ile Pro Pro (IPP) was also tested for renal pathologic state, in order to evaluate its effect to suppress kidney glomerular disease and renal arteriosclerosis.
The test was carried out using three groups of male Wistar rats of seven weeks old (Japan SLC, Inc.), each of which group consist of 9 to 12 rats. After habituation breeding for a week, drinking water with L-NAME (manufactured by Sigma) being dissolved at a concentration of 1 g/L; drinking water with L-NAME and IPP being dissolved at a concentration of 1 g/L and 0.3 g/L respectively; drinking water with L-NAME and angiotensin converting enzyme (ACE) inhibitor, Enalapril at a concentration of 1 g/L and 0.5 mg/L respectively, were supplied ad libitum for eight weeks. The dose of Enalapril was determined such that its activity to inhibit ACE was equivalent to the activity of IPP to inhibit ACE.
The rats were sacrificed by exsanguination under diethylether anesthesia. The kidney was enucleated and then fixed with 10% neutral buffered formalin solution. Tissue samples were prepared from the fixed kidney by excising in parallel with the minor axis such that the tip of renal papilla was included. The specimen were embedded in paraffin and cut into thin sections with a thickness of 2.0 to 2.5 μm using a microtome. Two to five sections per rat were prepared. The thin sliced sections were subjected to hematoxylin eosin staining or periodic acid methenamine silver staining (PAM staining). In accordance with a method by Foglieni et al. (Chiara Foglieni, et al., “Protective effect of EDTA preadministration on renal ischemia” BMC Nephrology 2006, 7:5, [online], Mar. 15, 2006, BioMed Central Ltd, http://www.biomedcentral.com/bmcnephrol/), a histopathological examination was, with keeping the name of each sample concealed, carried out by a pathologist who was not involved in the test.
Under a microscopic observation, the glomerulus that atrophic lesions, deterioration of the glomerulus, glomerulosclerosis, alteration of Bowman's capsule or the like was observed was defined as the glomerulus with lesions, in accordance with the definition of the glomerular lesions described in a book by Enomoto et al. (edited by Makoto Enomoto, Yuzo Hayashi, and Hisako Tanaka, “Pathological tissues of experimental animals”, Softscience, pages 380-396). The atrophic lesion refers to conditions where the size ratio between the glomerulus and Bowman's capsule is altered due to glomerular atrophy. The deterioration of the glomerulus refers to conditions where the blood capillary cavity of the glomerulus is disappeared and glomerular functions are lost. The glomerulosclerosis refers to conditions where increased mesangial matrix was observed without accompanying hyperplasia of collagen fiber. The alteration of Bowman's capsule refers to conditions where hypertrophy of epithelial cells and uptake of lipid droplets and/or protein particles are observed. In one whole section, the frequency of occurrence of these glomerular lesions was scored from 0 to 3, and a score was determined for each individual rat.
Score 0: A case where one or two glomerular lesions owing to physiologic alterations were observed.
Score 1: A case where one or two focal regions in the glomerulus were observed, which regions were a limited and small range.
Score 2: A case where two to four focal regions in the glomerulus were observed, which regions were a middle sized range.
The focal regions herein indicate that a plural of lesions are, on the basis of pathological findings, observed in a certain area in one whole section.
The thickening of the renal artery wall at the hilum existing in the renal medulla and the thickening of the small and middle artery wall existing in the renal cortex were also evaluated by a tissue pathological test in the same manner as the observation of the glomerular lesions. […]

[3] = test system: male Wistar rats; assay: Test 1: frequency of occurrence of renal glomerular lesions in rats given L-NAME; type: in vivo, rat; settings: drinking water with L-NAME 1 g/L plus VPP 0.3 g/L or Enalapril 0.5 mg/L, ad libitum for eight weeks; compared with L-NAME alone; FIG. 2
Description: as §1, §2
Under a microscopic observation, the glomerulus that atrophic lesions, deterioration of the glomerulus, glomerulosclerosis, alteration of Bowman's capsule or the like was observed was defined as the glomerulus with lesions, in accordance with the definition of the glomerular lesions described in a book by Enomoto et al. (edited by Makoto Enomoto, Yuzo Hayashi, and Hisako Tanaka, “Pathological tissues of experimental animals”, Softscience, pages 380-396). […] In one whole section, the frequency of occurrence of these glomerular lesions was scored from 0 to 3, and a score was determined for each individual rat. The thus determined score for each individual rat was subjected to statistical analysis and a score for each group was determined. […]

Compound	degree of thickening of the small- and mid-sized artery wall (score 0 to 3) [1]	onset of the pathologic state of the glomerulus and the renal artery (result in words) [2]	With pathologic state [2] [rats]	Without pathologic state [2] [rats]	frequency of occurrence of the glomerular lesions (score 0 to 3) [3]
CCOC(=O)[C@H](CCc1ccccc1)N[C@@H](C)C(=O)N1CCC[C@H]1C(=O)O [Enalapril]	did not show the suppressive effect	did not exhibit such an effect	2	7	did not show the suppressive effect
Val Pro Pro [VPP]	decrease in the degree of thickening	–	–	–	suppression of the frequency of occurrence of the glomerular lesions
Ile Pro Pro [IPP]	–	suppressed the onset of the pathologic state	0	9	–

Reference: patent US20120077735A1, “PROPHYLACTIC AGENT FOR RENAL FAILURE” (priority 2007, published 2012)
